Test results taken from article PMC11396129, “Oxindole–benzothiazole hybrids as CDK2 inhibitors and anticancer agents: design, synthesis and biological evaluation” (BMC Chemistry, 2024).

Key:
Format in all cases: cell-based, human
[1] = tested on: A549/ATCC; assay: NCI 60 panel growth inhibition (SRB), non-small cell lung cancer; conditions: 10 μM
Description: (§1) Screening of cytotoxic activity against a panel of sixty human tumor cell lines The selected compounds by NCI were evaluated for their anticancer activity in a two- stage process. […] Then, the output from the single dose screen is reported as a mean graph. […] Assay protocol. […] For a typical screening experiment, cells are inoculated into 96 well microtiter plates in 100 µL at plating densities ranging from 5000 to 40,000 cells/well depending on the doubling time of individual cell lines. […] After 24 h, two plates of each cell line are fixed in situ with TCA, to represent a measurement of the cell population for each cell line at the time of drug addition (Tz). The experimental drugs are solubilized in dimethyl sulfoxide at 400-fold the desired final maximum test concentration and stored frozen prior to use. At the time of drug addition, an aliquot of frozen concentrate is thawed and diluted to twice the desired final maximum test concentration with complete medium containing 50 µg/mL gentamicin. Additional four, 10-fold or ½ log serial dilutions are made to provide a total of five drug concentrations plus control. […] For adherent cells, the assay is terminated by the addition of cold TCA. […] The supernatant is discarded, and the plates are washed five times with tap water and air dried. […] Using the seven absorbance measurements [time zero, (Tz), control growth, (C), and test growth in the presence of drug at the five concentration levels (Ti)], the percentage growth is calculated at each of the drug concentrations levels. Percentage growth inhibition is calculated as: [(Ti Tz)/(C–Tz)] x 100 for concentrations for which Ti>/=Tz and [(Ti-Tz)/Tz] x 100 for concentrations for which Ti < Tz. Three dose response parameters are calculated for each experimental agent. […] The drug concentration resulting in total growth inhibition (TGI) is calculated from Ti = Tz. […] Values are calculated for each of these three parameters if the level of activity is reached; however, if the effect is not reached or is exceeded, the value for that parameter is expressed as greater or less than the maximum or minimum concentration tested.

[2] = tested on: EKVX; assay: as above; conditions: 10 μM
Description: as §1

[3] = tested on: HOP-92; assay: as above; conditions: HOP-92, 10 μM
Description: as §1

[4] = tested on: NCI-H226; assay: as above; conditions: NCI-H226, 10 μM
Description: as §1

[5] = tested on: NCI-H23; assay: as above; conditions: NCI-H23, 10 μM
Description: as §1

[6] = tested on: NCI-H322M; assay: as above; conditions: 10 μM
Description: as §1

[7] = tested on: NCI-H460; assay: as above; conditions: NCI-H460, 10 μM
Description: as §1

[8] = tested on: NCI-H522; assay: as above; conditions: NCI-H522, 10 μM
Description: as §1

[9] = tested on: HCC-2998; assay: NCI 60 panel growth inhibition (SRB), colon cancer; conditions: HCC-2998, 10 μM
Description: as §1

[10] = tested on: HCT-116; assay: NCI 60 panel growth inhibition (SRB), colon cancer; conditions: HCT-116, 10 μM
Description: as §1

[11] = tested on: HCT-15; assay: NCI 60 panel growth inhibition (SRB), colon cancer; conditions: HCT-15, 10 μM
Description: as §1

[12] = tested on: KM12; assay: NCI 60 panel growth inhibition (SRB), colon cancer; conditions: KM12, 10 μM
Description: as §1

[13] = tested on: SW-620; assay: NCI 60 panel growth inhibition (SRB), colon cancer; conditions: SW-620, 10 μM
Description: as §1

[14] = tested on: LOX IMVI; assay: NCI 60 panel growth inhibition (SRB), melanoma; conditions: 10 μM
Description: as §1

[15] = tested on: M14; assay: NCI 60 panel growth inhibition (SRB), melanoma; conditions: M14, 10 μM
Description: as §1

[16] = tested on: MALME-3M; assay: NCI 60 panel growth inhibition (SRB), melanoma; conditions: 10 μM
Description: as §1

[17] = tested on: MDA-MB-435; assay: NCI 60 panel growth inhibition (SRB), melanoma; conditions: MDA-MB-435, 10 μM
Description: as §1

[18] = tested on: SK-MEL-28; assay: NCI 60 panel growth inhibition (SRB), melanoma; conditions: SK-MEL-28, 10 μM
Description: as §1

[19] = tested on: SK-MEL-5; assay: NCI 60 panel growth inhibition (SRB), melanoma; conditions: SK-MEL-5, 10 μM
Description: as §1

[20] = tested on: UACC-257; assay: NCI 60 panel growth inhibition (SRB), melanoma; conditions: UACC-257, 10 μM
Description: as §1

[21] = tested on: UACC-62; assay: NCI 60 panel growth inhibition (SRB), melanoma; conditions: UACC-62, 10 μM
Description: as §1

[22] = tested on: RXF 393; assay: NCI 60 panel growth inhibition (SRB), renal cancer; conditions: RXF 393, 10 μM
Description: as §1

[23] = tested on: TK-10; assay: NCI 60 panel growth inhibition (SRB), renal cancer; conditions: TK-10, 10 μM
Description: as §1

[24] = tested on: UO-31; assay: NCI 60 panel growth inhibition (SRB), renal cancer; conditions: UO-31, 10 μM
Description: as §1

[25] = tested on: DU-145; assay: NCI 60 panel growth inhibition (SRB), prostate cancer; conditions: DU-145, 10 μM
Description: as §1

[26] = tested on: PC-3; assay: as above; conditions: PC-3, 10 μM
Description: as §1

[27] = tested on: BT-549; assay: NCI 60 panel growth inhibition (SRB), breast cancer; conditions: BT-549, 10 μM
Description: as §1

[28] = tested on: HS 578T; assay: as above; conditions: 10 μM
Description: as §1

[29] = tested on: MCF7; assay: as above; conditions: MCF7, 10 μM
Description: as §1

[30] = tested on: MDA-MB-231/ATCC; assay: as above; conditions: 10 μM
Description: as §1

[31] = tested on: MDA-MB-468; assay: as above; conditions: MDA-MB-468, 10 μM
Description: as §1

SMILES	GI% [1]	GI% [2]	GI% [3]	GI% [4]	GI% [5] [%]	GI% [6]	GI% [7]	GI% [8] [%]	GI% [9]	GI% [10] [%]	GI% [11]	GI% [12]	GI% [13]	GI% [14] [%]	GI% [15]	GI% [16]	GI% [17]	GI% [18]	GI% [19]	GI% [20]	further results
COc1ccc(-c2nc3ccccc3s2)cc1OCC(=O)NN=C1C(=O)Nc2ccc([N+](=O)[O-])cc21 [Compound 9p, 2-(5-(Benzo[d]thiazol-2-yl)-2-methoxyphenoxy)-N′-(5-nitro-2-oxoindolin-3-ylidene)acetohydrazide]	7.06%	9.22%	99.07%	67.22%	47.90	6.14%	– (GI% < 5%)	42.45	– (GI% < 5%)	47.25	– (GI% < 5%)	– (GI% < 5%)	– (GI% < 5%)	13.12	– (GI% < 5%)	8.36%	– (GI% < 5%)	– (GI% < 5%)	5.61%	– (GI% < 5%)	GI% [21]: 19.19%; GI% [22]: 99.84%; GI% [23]: 96.63%; GI% [24]: 19.08%; GI% [25]: – (GI% < 5%); GI% [26]: 11.94%; GI% [27]: 54.51%; GI% [28]: 96.22%; GI% [29]: 17.21%; GI% [30]: 49.20%; GI% [31]: 17.86%
COc1ccc(-c2nc3ccccc3s2)cc1OCC(=O)NN=C1C(=O)Nc2ccccc21 [Compound 9m, 2-(5-(Benzo[d]thiazol-2-yl)-2-methoxyphenoxy)-N′-(2-oxoindolin-3-ylidene) acetohydrazide]	– (GI% < 5%)	– (GI% < 5%)	– (GI% < 5%)	– (GI% < 5%)	14.06	– (GI% < 5%)	17.38%	7.23	– (GI% < 5%)	41.54	10.77%	– (GI% < 5%)	29.93%	18.28	– (GI% < 5%)	– (GI% < 5%)	– (GI% < 5%)	– (GI% < 5%)	– (GI% < 5%)	– (GI% < 5%)	GI% [21]: – (GI% < 5%); GI% [22]: – (GI% < 5%); GI% [23]: 10.32%; GI% [24]: – (GI% < 5%); GI% [25]: 5.42%; GI% [26]: 7.63%; GI% [27]: – (GI% < 5%); GI% [28]: – (GI% < 5%); GI% [29]: 33.97%; GI% [30]: 9.78%; GI% [31]: 8.24%
COc1ccc(-c2nc3ccccc3s2)cc1OCC(=O)NN=C1C(=O)Nc2ccc(Cl)cc21 [Compound 9q, 2-(5-(Benzo[d]thiazol-2-yl)-2-methoxyphenoxy)-N′-(5-chloro-2-oxoindolin-3-ylidene)acetohydrazide]	20.18%	25.37%	52.70%	24.77%	42.70	– (GI% < 5%)	44.39%	21.77	– (GI% < 5%)	72.84	36.40%	17.57%	51.82%	72.29	23.59%	26.21%	37.37%	– (GI% < 5%)	12.80%	– (GI% < 5%)	GI% [21]: 12.95%; GI% [22]: 32.76%; GI% [23]: 62.99%; GI% [24]: 20.65%; GI% [25]: 19.41%; GI% [26]: 26.21%; GI% [27]: 23.63%; GI% [28]: 74.27%; GI% [29]: 57.82%; GI% [30]: 59.98%; GI% [31]: – (GI% < 5%)
COc1ccc(-c2nc3ccccc3s2)cc1OCC(=O)NN=C1C(=O)Nc2ccc(Br)cc21 [Compound 9r, 2-(5-(Benzo[d]thiazol-2-yl)-2-methoxyphenoxy)-N′-(5-bromo-2-oxoindolin-3-ylidene)acetohydrazide]	7.78%	7.18%	32.33%	10.50%	20.81	– (GI% < 5%)	– (GI% < 5%)	8.27	– (GI% < 5%)	30.23	– (GI% < 5%)	– (GI% < 5%)	7.61%	38.27	9.47%	11.71%	– (GI% < 5%)	– (GI% < 5%)	– (GI% < 5%)	– (GI% < 5%)	GI% [21]: – (GI% < 5%); GI% [22]: 15.08%; GI% [23]: 36.32%; GI% [24]: 15.64%; GI% [25]: – (GI% < 5%); GI% [26]: 16.13%; GI% [27]: 21.16%; GI% [28]: 46.81%; GI% [29]: 35.42%; GI% [30]: 42.55%; GI% [31]: – (GI% < 5%)
